The record followed here is ChEMBL document CHEMBL4417621, “Methods to identify tas2r modulators” (2013).

Holding throughout (type): functional, cell-based
Experiment [1] concerns the target T1, Taste receptor type 2 member 10 (Homo sapiens) (UniProt Q9NYW0).
T1 sequence (whole entry): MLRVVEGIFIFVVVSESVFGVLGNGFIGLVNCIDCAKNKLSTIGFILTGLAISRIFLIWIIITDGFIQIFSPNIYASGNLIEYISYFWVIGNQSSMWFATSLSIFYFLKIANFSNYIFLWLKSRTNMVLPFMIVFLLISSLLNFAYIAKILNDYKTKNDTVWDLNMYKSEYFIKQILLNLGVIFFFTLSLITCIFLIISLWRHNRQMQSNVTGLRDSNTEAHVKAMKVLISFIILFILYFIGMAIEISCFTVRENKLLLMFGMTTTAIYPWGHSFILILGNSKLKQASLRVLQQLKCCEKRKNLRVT
Description: Activation of full-length human TAS2R10 expressed in HEK293T/Galpha16-gustducin 44 cells assessed as effect on calcium flux by measuring deltaF/F0 ratio at 25 mM by Fluo-4 dye based FLIPR assay.

For experiment [2], the target named is T1, Taste receptor type 2 member 10 (Homo sapiens). Description: Activation of full-length human TAS2R10 expressed in HEK293T/Galpha16-gustducin 44 cells assessed as effect on calcium flux by measuring deltaF/F0 ratio at 0.3906 mM by Fluo-4 dye based FLIPR assay.
The target in experiment [3] is T2, Taste receptor type 2 member 31 (Homo sapiens, UniProt P59538).
T2 sequence (P59538 whole entry): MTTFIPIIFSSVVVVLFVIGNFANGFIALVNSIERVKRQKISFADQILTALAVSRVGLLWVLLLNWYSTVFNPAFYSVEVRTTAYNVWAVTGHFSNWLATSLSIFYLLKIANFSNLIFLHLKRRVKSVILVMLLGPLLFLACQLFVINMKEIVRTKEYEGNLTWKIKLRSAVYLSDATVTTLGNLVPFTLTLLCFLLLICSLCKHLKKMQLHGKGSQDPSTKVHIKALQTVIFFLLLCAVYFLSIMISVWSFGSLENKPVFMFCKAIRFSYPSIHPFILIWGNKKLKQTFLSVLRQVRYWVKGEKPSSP
Description: Agonist activity at full-length human TAS2R44 expressed in HEK293T/Galpha16-gustducin 44 cells assessed as effect on calcium flux by measuring deltaF/F0 ratio by Fluo-4 dye based FLIPR assay.

For experiment [4], the target named is T3, Taste receptor type 2 member 46 (Homo sapiens) (UniProt P59540).
T3 sequence (whole entry): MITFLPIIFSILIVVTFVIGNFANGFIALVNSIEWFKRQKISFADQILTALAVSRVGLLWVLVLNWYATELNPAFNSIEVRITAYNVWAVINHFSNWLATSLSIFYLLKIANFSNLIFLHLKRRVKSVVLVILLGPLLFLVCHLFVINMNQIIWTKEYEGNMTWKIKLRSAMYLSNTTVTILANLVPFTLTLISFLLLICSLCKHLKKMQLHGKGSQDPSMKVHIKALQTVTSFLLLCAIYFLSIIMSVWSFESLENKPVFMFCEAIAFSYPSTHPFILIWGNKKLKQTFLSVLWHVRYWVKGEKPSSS
Description: Activation of full-length human TAS2R46 expressed in HEK293T/Galpha16-gustducin 44 cells assessed as effect on calcium flux by measuring deltaF/F0 ratio at 0.3906 mM by Fluo-4 dye based FLIPR assay.

Experiment [5] addresses T4, Taste receptor type 2 member 1 (Homo sapiens) (UniProt Q9NYW7).
T4 sequence (whole entry): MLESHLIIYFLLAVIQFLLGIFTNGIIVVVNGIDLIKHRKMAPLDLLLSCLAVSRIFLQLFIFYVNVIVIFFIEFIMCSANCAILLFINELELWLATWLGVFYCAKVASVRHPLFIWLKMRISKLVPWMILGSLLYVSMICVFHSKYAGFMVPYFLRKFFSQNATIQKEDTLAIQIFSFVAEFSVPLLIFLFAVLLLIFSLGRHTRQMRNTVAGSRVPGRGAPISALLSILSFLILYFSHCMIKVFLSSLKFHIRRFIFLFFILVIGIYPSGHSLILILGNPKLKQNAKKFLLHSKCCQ
Description: Activation of full-length human TAS2R1 expressed in HEK293T/Galpha16-gustducin 44 cells assessed as effect on calcium flux by measuring deltaF/F0 ratio at 100 mM by Fluo-4 dye based FLIPR assay.

The target in experiment [6] is T1, Taste receptor type 2 member 10 (Homo sapiens). Description: Activation of full-length human TAS2R10 expressed in HEK293T/Galpha16-gustducin 44 cells assessed as effect on calcium flux by measuring deltaF/F0 ratio at 3.125 mM by Fluo-4 dye based FLIPR assay.
Experiment [7] deals with T5, Taste receptor type 2 member 31 (Homo sapiens) (UniProt P59538).
T5 sequence (whole entry): T2 sequence (P59538 whole entry)
Description: Activation of full-length human TAS2R44 expressed in HEK293T/Galpha16-gustducin 44 cells assessed as effect on calcium flux by measuring deltaF/F0 ratio at 12.5 mM by Fluo-4 dye based FLIPR assay (reference value: […] +/ - 0.014).

Experiment [8] concerns the target T5, Taste receptor type 2 member 31 (Homo sapiens). Description: Activation of full-length human TAS2R44 expressed in HEK293T/Galpha16-gustducin 44 cells assessed as effect on calcium flux by measuring deltaF/F0 ratio at 100 mM by Fluo-4 dye based FLIPR assay (reference value: 0.021 +/ - 0.012).

Turning to `OC[C@H]1O[C@H](O[C@]2(CCl)O[C@H](CCl)[C@@H](O)[C@@H]2O)[C@H](O)[C@@H](O)[C@H]1Cl` [SUCRALOSE], the Ratio in experiment [1] is 0.087; in experiment [2] it was 0.05; in experiment [4], 0.041; in experiment [5] it was 0.518; in experiment [6], 0.053; in experiment [7], 0.109. The Ratio in experiment [8] came out at 0.26. Besides, the EC50 in experiment [3] amounted to 16.7 mM.
